Reference: article PMC8405639, “2-Carba-lysophosphatidic acid is a novel β-lysophosphatidic acid analogue with high potential for lysophosphatidic acid receptor activation and autotaxin inhibition” (Scientific Reports, 2021)

Legend:
[1] = system: extracellular signal-regulated kinase (ERK) phosphorylation; assay: Western blot analysis of phosphorylated ERK in HeLa cells; type: cell-based; details: HeLa cells, 10 µM, 5 min, 37 °C, western blot
Procedure: Figure 3 Effects of 2-carba-lysophosphatidic acid (2carbaLPA) on the phosphorylation of the extracellular signal-regulated kinase (ERK) protein. HeLa cells were preincubated with 10 µM Ki16425 for 30 min at 37 °C and then incubated with 10 µM 2carbaLPA, lysophosphatidic acid (LPA) 18:1, or vehicle for 5 min at 37 °C. Protein levels of phosphorylated ERK, total ERK, and α-tubulin were determined by western blot analysis. The full-length blots are shown in the Supplementary Fig. S2.
HeLa cells were obtained from RIKEN RBC Cell Bank (Tsukuba, Japan). […] Cells were harvested using 0.125 M Tris–HCl (pH 6.8) supplemented with 4% sodium dodecyl sulphate (SDS), 20% glycerol, 10% 2-mercaptoethanol, and 0.01% bromophenol blue. Proteins were separated by SDS–polyacrylamide gel electrophoresis, and the proteins were transferred onto an Immobilon-P Transfer Membrane (Millipore, Burlington, MA, USA). The membrane was incubated with primary antibodies: anti-phospho-ERK (pERK), anti-ERK, and anti-tubulin (all at 1:1,000 dilution, Cell Signaling Technology, Danvers, MA, USA). Next, after washing, the membrane was treated with horseradish peroxidase-conjugated anti-rabbit IgG (1:1000 dilution; Cell Signaling Technology). Immunodetection was performed using an enhanced chemiluminescence system (EzWestLumi plus, ATTO Corporation, Tokyo, Japan) and ImageQuant LAS 4000 (GE healthcare, Buckinghamshire, UK).

[2] = 2carbaLPA detection in rat plasma after oral 2ccPA capsule; type: in vivo; details: oral gastro-resistant (entero-soluble) capsule of 2ccPA, 0-10 h
Source text: Supplementary Figure S5. 2-carba-lysophosphatidic acid (2carbaLPA) produced in rat plasma from rats administered 2-carba-cyclic phosphatidic acid (2ccPA) as a gastro-resistant capsule. Rats were orally administered with 2ccPA containing capsule and 2carbaLPA produced in plasma was detected using liquid chromatography with tandem mass spectrometry (LC-QqQ) and presented as peak area (counts). Data are represented as mean ± standard deviation (n = 5 rat samples).
Preparation of 2ccPA intended to be administered as a gastro-resistant capsule, administration of the prepared 2ccPA in rats, and extraction of lipids from plasma samples were performed as per previously described methods^1. The experimental protocols were approved by the Animal Research Committee of the Saitama Medical University (approval number; 2113). Briefly, each capsule was filled with 19.70 ± 1.39 mg of 2ccPA and enteric-coated. Male 7-week-old Sprague Dawley rats were orally administrated with a single capsule and blood was collected from the jugular vein using a catheter from 0 to 10 h. Plasma was obtained by mixing with EDTA-Na2 (1 mg/mL), and the lipid fraction was extracted by adding acidic methanol, including LPA 17:0 (final concentration: 100 nM; Avanti Polar Lipids) as internal standard. Analysis for detection of 2carbaLPA with LC-QqQ was performed as above.

[3] = design: method as in PMID 32298781; details: acidic conditions ref 16; cited from earlier work
[4] = system: LPA3; details: Ca2+ mobilization, RH7777 and CHO cells, less than 2 min incubation ref 17; cited from earlier work
[5] = Degradation under acidic conditions (artificial gastric juice); type: physicochemical; details: artificial gastric juice pH 1.2, 2 h, 37 °C
Procedure: 2ccPA was dissolved in artificial gastric juice (2 g NaCl and 12 M HCl 7 mL/1000 mL water at pH 1.2) at a final concentration of 1 mg/mL and incubated for 2 h at 37 °C. Lipid fraction was extracted by 4 volumes of chloroform/methanol (2:1, v/v) and separated by TLC as per previously reported. Extraction from the silica powder of TLC was performed by addition of 8 mL of chloroform/methanol (1:9, v/v) and it was repeated three times. After filtration (0.2 μm Captiva Premium syringe PTFE filter, Agilent Technologies, Santa Clara, CA, USA), the sample was diluted 100-fold with 5 mM ammonium formate in methanol/water (95:5, v/v) and subjected to QqTOF. The 3ccPA degradation compound was also prepared using the same method. The purity of the degradation compound was confirmed to be more than 95% by TLC, QqTOF, and LC-QqQ. Quantification was performed by weighing the purified sample after dried more than 24 h in the desiccator equipped with a vacuum pump.

## CCCCCCCC/C=C\CCCCCCCC(=O)OCC(CO)CP(=O)(O)O (centres unmarked) [2carbaLPA 18:1, 2-carba-lysophosphatidic acid]
[1]
  ERK phosphorylation (activation): activated ERK
[2]
  2carbaLPA in plasma after administration of 2ccPA: detectable

## CCCCCCCC/C=C\CCCCCCCC(=O)OCC1COP(=O)(O)C1 (centres unmarked) [2ccPA 18:1, 2-carba-cyclic phosphatidic acid]
[3]
  Degradation under acidic conditions: degraded under acidic conditions

## CCCCCCCC/C=C\CCCCCCCC(=O)OC[C@@H](O)CCP(=O)(O)O [3carba LPA 18:1, 3-carba-lysophosphatidic acid]
[4]
  Activity relative to LPA (times weaker), LPA3: more than 10 times

## CCCCCCCC/C=C\CCCCCCCC(=O)OC[C@@H]1CCP(=O)(O)O1 [3ccPA 18:1, 3-carba-cyclic phosphatidic acid]
[5]
  Conversion under acidic condition: converted to the corresponding 3-carba-lysophosphatidic acid
